Here are results for 1 compound from ChEMBL document CHEMBL1125026, “Synthesis and estrogen receptor binding of novel 11 beta-substituted estra-1,3,5(10)-triene-3,17 beta-diols” (J Med Chem, 1990).

The experiment concerns the target Estrogen receptor (Rattus norvegicus) (UniProt P06211+Q62986). Kind of experiment: Relative binding affinity for rat uterine estrogen receptor at 25 degree C. Type of experiment: protein assay.

Compound `C[C@]12CC[C@@H]3c4ccc(O)cc4CC[C@H]3[C@@H]1C[C@@H](F)[C@@H]2O` returned an RBA of 60.
